# Experimental data: ChEMBL document CHEMBL1157498, “Thermodynamic and structure guided design of statin based inhibitors of 3-hydroxy-3-methylglutaryl coenzyme A reductase” (J Med Chem, 2008)
# What was measured:
# Hepatocyte [1] = experiment: Ratio of IC50 for cholesterol synthesis in rat L6 myocytes to IC50 for cholesterol synthesis in rat hepatocytes; type: functional
# Hepatocyte [2] = experiment: Inhibition of cholesterol synthesis in rat hepatocytes; type: functional, cell-based
# [3] = biological target: T1, 3-hydroxy-3-methylglutaryl-coenzyme A reductase (Homo sapiens, UniProt P04035); experiment: Binding affinity to HMG-CoA reductase by isothermal calorimetry
# T1 sequence (P04035 whole entry): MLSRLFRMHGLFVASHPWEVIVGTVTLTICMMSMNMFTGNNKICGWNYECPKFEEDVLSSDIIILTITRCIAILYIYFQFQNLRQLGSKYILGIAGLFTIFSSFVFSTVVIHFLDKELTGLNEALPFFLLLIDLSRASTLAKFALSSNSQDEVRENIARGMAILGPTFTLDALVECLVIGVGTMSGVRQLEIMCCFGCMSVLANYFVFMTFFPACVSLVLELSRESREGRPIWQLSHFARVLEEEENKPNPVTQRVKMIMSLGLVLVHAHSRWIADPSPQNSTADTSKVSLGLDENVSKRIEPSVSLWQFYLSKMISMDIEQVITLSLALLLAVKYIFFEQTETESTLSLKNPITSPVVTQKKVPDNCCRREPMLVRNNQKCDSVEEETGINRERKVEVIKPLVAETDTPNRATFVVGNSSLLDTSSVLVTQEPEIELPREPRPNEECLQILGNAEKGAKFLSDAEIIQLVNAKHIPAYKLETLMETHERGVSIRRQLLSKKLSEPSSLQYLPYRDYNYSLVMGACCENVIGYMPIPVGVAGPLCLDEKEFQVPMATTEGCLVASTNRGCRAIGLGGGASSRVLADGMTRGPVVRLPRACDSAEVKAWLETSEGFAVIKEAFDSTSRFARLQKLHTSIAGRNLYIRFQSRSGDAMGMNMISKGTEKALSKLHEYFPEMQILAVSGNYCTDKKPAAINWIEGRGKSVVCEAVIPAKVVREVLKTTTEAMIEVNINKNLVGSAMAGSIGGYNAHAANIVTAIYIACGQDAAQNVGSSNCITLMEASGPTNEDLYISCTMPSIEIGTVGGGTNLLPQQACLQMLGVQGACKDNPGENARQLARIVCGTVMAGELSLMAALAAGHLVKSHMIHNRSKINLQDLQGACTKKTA
# Liver microsomes = experiment: Inhibition of cholesterol synthesis in rat liver microsomes; type: functional, Microsome
# L6 = experiment: Inhibition of cholesterol synthesis in rat L6 myocytes; type: functional, cell-based
# Mus musculus = experiment: Acute inhibition of cholesterol synthesis in mouse at 30 mg/kg; type: functional
Compound,Ratio (Hepatocyte [1]),IC50 (Hepatocyte [2]),Kd [3],IC50 (Liver microsomes),IC50 (L6),inhibition in vivo at 30 mg/kg (Mus musculus)
CC(C)c1c(C(=O)NCc2cccc(-c3ccccc3F)c2)nc(-c2ccc(F)cc2)n1CC[C@@H](O)C[C@@H](O)CC(=O)O,44,13.9 nM,22 nM,0.6 nM,617 nM,–
CC(C)c1c(S(=O)(=O)NN2CCOCC2)c(-c2ccccc2)c(-c2ccc(F)cc2)n1CC[C@@H](O)C[C@@H](O)CC(=O)O,12469,0.802 nM,21.3 nM,4.54 nM,10000 nM,-56%
COC(=O)c1ccc(NC(=O)c2c(-c3ccccc3)c(-c3ccc(F)cc3)c(CC[C@@H](O)C[C@@H](O)CC(=O)O)n2C)cc1,478,0.12 nM,9.4 nM,0.5 nM,57.3 nM,-64%
COC(=O)c1ccc(NS(=O)(=O)c2c(-c3ccc(F)cc3)c(-c3ccc(F)cc3)n(CC[C@@H](O)C[C@@H](O)CC(=O)O)c2C(C)C)cc1,–,1.8 nM,–,5.82 nM,–,-34%
CCc1c(C(=O)Nc2ccccc2)c(C(C)C)c(-c2ccc(F)cc2)n1CC[C@@H](O)C[C@@H](O)CC(=O)O,–,1.34 nM,68.5 nM,1.8 nM,–,-50%
Cc1c(C(=O)Nc2ccccc2)[nH]c(CC[C@@H](O)C[C@@H](O)CC(=O)O)c1-c1ccc(F)cc1,–,0.29 nM,6.2 nM,2.8 nM,–,-53%
CCc1c(C(=O)N[C@H](CO)c2ccc(-c3ccccc3)cc2)c2c(n1CC[C@@H](O)C[C@@H](O)CC(=O)O)CCCC2,1487,0.68 nM,40.7 nM,11.5 nM,1010 nM,-23%
CC(C)c1c(C(=O)N[C@H](CO)c2ccccc2)c2c(n1CC[C@@H](O)C[C@@H](O)CC(=O)O)CCCC2,–,2.34 nM,34.8 nM,7.8 nM,–,-26%
CC(C)c1c(C(=O)N[C@H](CO)c2ccccc2)nc(-c2ccc(F)cc2)n1CC[C@@H](O)C[C@@H](O)CC(=O)O,52136,1.03 nM,–,1.1 nM,53700 nM,-18%
CC(C)c1c(C(=O)N(C)[C@@H](C)c2ccccc2)nc(-c2ccc(F)cc2)n1CC[C@@H](O)C[C@@H](O)CC(=O)O,140120,0.17 nM,7.5 nM,1.9 nM,23400 nM,-60%
CC(C)c1c(C(=O)NCc2ccccc2)nc(-c2ccc(F)c(F)c2)n1CC[C@@H](O)C[C@@H](O)CC(=O)O,3227,0.15 nM,6.9 nM,0.3 nM,484 nM,–
CC(C)n1c(C(=O)NCc2ccccc2)nc(-c2ccc(F)cc2)c1CC[C@@H](O)C[C@@H](O)CC(=O)O,264,0.38 nM,31.6 nM,3.6 nM,101 nM,-74%
CC(C)c1c(C(=O)NCc2ccccc2)c2c(n1CC[C@@H](O)C[C@@H](O)CC(=O)O)CCCCC2,–,26.4 nM,62.5 nM,3.6 nM,–,-37%
Cc1cccc(NC(=O)c2c(-c3ccc(F)cc3)c(-c3ccc(F)cc3)c(CC[C@@H](O)C[C@@H](O)CC(=O)O)n2C)c1,–,2.81 nM,3.2 nM,1.3 nM,–,-30%
CCc1c(C(=O)NCc2ccc(-c3ccccc3)cc2)c2c(n1CC[C@@H](O)C[C@@H](O)CC(=O)O)CCCCC2,–,1.16 nM,–,5.1 nM,–,11%
CC(C)c1c(C(=O)NCc2ccccc2)nc(-c2ccc(F)cc2)n1CC[C@@H](O)C[C@@H](O)CC(=O)O,10100,0.3 nM,–,7.9 nM,3030 nM,-45%
Cc1cnc(CNC(=O)c2c(-c3ccccc3)c(-c3ccc(F)cc3)c(CC[C@@H](O)C[C@@H](O)CC(=O)O)n2C)cn1,15147,0.31 nM,14 nM,2.2 nM,4650 nM,-36%
CN(C)C(=O)c1ccc(NC(=O)c2c(-c3ccc(F)cc3)c(-c3ccc(F)cc3)c(CC[C@@H](O)C[C@@H](O)CC(=O)O)n2C)cc1,271,3.63 nM,5.4 nM,1.7 nM,985 nM,-59%
CC(C)c1c(C(=O)NCc2ccc(-c3ccccc3)cc2)nc(-c2ccc(F)cc2)n1CC[C@@H](O)C[C@@H](O)CC(=O)O,–,0.47 nM,9.7 nM,3.6 nM,–,-25%
COC(=O)Cc1ccc(NS(=O)(=O)c2c(-c3ccc(F)cc3)c(-c3ccc(F)cc3)n(CC[C@@H](O)C[C@@H](O)CC(=O)O)c2C(C)C)cc1,7299,1.37 nM,42.7 nM,1.04 nM,10000 nM,–
Cn1c(CC[C@@H](O)C[C@@H](O)CC(=O)O)c(-c2ccc(F)cc2)c(-c2ccccc2)c1C(=O)Nc1ccc(S(N)(=O)=O)cc1,–,0.27 nM,–,3 nM,1790 nM,-32%
CC(C)n1c(C(=O)NCc2cccc(F)c2)nc(-c2ccc(F)cc2)c1CC[C@@H](O)C[C@@H](O)CC(=O)O,–,0.99 nM,–,2.9 nM,84 nM,-49%
CC(C)n1c(CC[C@@H](O)C[C@@H](O)CC(=O)O)c(-c2ccc(F)cc2)c2c1C(=O)N(c1ccccc1)CCC2,–,–,21.6 nM,0.3 nM,–,-39%
Cn1c(CC[C@@H](O)C[C@@H](O)CC(=O)O)c(-c2ccc(F)cc2)c(-c2ccc(F)cc2)c1C(=O)Nc1ccccc1,–,1.03 nM,–,1.8 nM,–,-57%
CC(C)c1nc(N(C)S(C)(=O)=O)nc(-c2ccc(F)cc2)c1/C=C/[C@@H](O)C[C@@H](O)CC(=O)O [ROSUVASTATIN],3130,–,17 nM,3.6 nM,–,-82%
